Experimental data reported in patent US20110275559A1, “Long-Acting Y2 and/or Y4 Receptor Agonists” (Novo Nordisk A/S, priority 2008, published 2011).
Read-outs that look alike come from different tables or passages of the source. *1 amine or outer side, *2 acyl side, *3 side chain or, on linkers, in order; H or OH if unused. Where a SMILES comes first, the peptide text is derived from it. Where no end group is shown, it is not given here. Side-chain parts run from the residue outwards. The star is where a group is joined. C20 diacid = O=C(O)CCCCCCCCCCCCCCCCCCC(=O)*; C18 diacid = O=C(O)CCCCCCCCCCCCCCCCC(=O)*; γGlu = O=C(O)[C@H](CCC(=O)[*:2])N[*:1]; Trx = NC[C@H]1CC[C@H](C(=O)O)CC1; AEEA = NCCOCCOCC(=O)O

Key:
Y4 receptor = molecular target: T1, Y4 receptor (Homo sapiens, UniProt P50391); assay: Y4 receptor ACTOne based FLIPR assay (cAMP biosensor); format: cell-based
T1 construct: host or cells: ACTOne HEK-293 cells
T1 sequence (P50391 whole entry): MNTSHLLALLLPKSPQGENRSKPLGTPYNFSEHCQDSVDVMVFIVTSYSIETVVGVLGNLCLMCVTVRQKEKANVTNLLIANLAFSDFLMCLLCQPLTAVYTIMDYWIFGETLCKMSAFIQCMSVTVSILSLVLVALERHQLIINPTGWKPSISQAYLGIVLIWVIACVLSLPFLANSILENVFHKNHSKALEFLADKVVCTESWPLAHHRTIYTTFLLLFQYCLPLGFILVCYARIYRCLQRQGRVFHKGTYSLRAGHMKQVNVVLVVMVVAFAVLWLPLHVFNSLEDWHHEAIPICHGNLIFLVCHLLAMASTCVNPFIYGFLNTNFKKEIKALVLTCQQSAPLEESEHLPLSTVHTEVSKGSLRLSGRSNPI
Text: (§1) ACTOne™ is an easily scaleable cAMP biosensor HTS platform for measurement of Gs and Gi coupled 7™ receptor signalling from BD Biosciences (San Jose, Calif.). The cells express a biosensor developed around a modified rat olfactory cyclic nucleotide gated (CNG) calcium channel—a fairly non-discriminatory ion channel that responds to cAMP and cGMP. The CNG has been engineered to be cAMP selective and thus function as a cAMP responsive biosensor that signals through calcium or membrane potential responsive dyes. Y2 or Y4 receptor expressing ACTOne HEK-293 cells are obtained from BD Biosciences. The cells are loaded with a calcium responsive dye that only distributes in the cytoplasm. Probenecid, an inhibitor of the organic anion transporter is added to prevent the dye from leaving the cell. A phosphodiesterase inhibitor is added to prevent formatted cAMP from being degraded. Isoproterenol (an β1/β2 agonist) is added to activate the adenylate cyclase. When an Y2 or Y4 receptor agonist is added, the adenylate cyclase is inactivated. The decreased calcium concentration in the cytoplasm is then detected as an increase in fluorescence. Together with the test substance, Isoproterenol at a concentration matching EC80, is added to all wells. • The cells are plated out in Greiner 384-well plates. […] The plates are covered with tinfoil to avoid light (the dye can be excited by the daylight, which results in higher baseline and variation). • The FLIPR (FLIPRtetra from Molecular Devices, CA, USA) adds 1 μl sample and 1 μl isoproterenol (0.05 μM final concentration) at the same time. • The fluorescence signal from the wells is measured 330 seconds after sample addition on the FLIPR.

Y2 receptor = molecular target: T2, Y2 receptor (Homo sapiens, UniProt P49146); assay: Y2 receptor ACTOne based FLIPR assay (cAMP biosensor); format: cell-based
T2 construct: host or cells: ACTOne HEK-293 cells
T2 sequence (P49146 1-381): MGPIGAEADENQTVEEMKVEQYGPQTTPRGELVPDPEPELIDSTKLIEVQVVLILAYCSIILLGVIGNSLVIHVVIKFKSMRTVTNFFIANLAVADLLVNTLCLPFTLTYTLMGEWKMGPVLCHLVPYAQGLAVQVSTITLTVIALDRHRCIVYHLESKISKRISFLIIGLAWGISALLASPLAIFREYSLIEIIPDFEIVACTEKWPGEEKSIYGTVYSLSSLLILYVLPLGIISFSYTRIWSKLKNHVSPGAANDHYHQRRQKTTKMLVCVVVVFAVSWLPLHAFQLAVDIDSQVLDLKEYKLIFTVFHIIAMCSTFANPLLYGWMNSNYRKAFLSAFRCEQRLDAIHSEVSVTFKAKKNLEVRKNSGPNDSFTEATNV
Text: as §1

in vivo = conditions: Göttingen, minipig, iv
Procedure, shortened: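 Catheterised mini-pigs received compound i.v. at 10 nmol/kg in pH 4.0 phosphate/NaCl/tween vehicle, or alternatively i.v. or s.c. at 1–30 nmol/kg in pH 8.0 K2HPO4/tween. Stabilised plasma was sampled up to 13 days and assayed by LC-MS (LLOQ 2 nM). Half-life came from non-compartmental analysis of individual animal profiles.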

[1] = Table 2, PP analogues, ACTOne HEK-293 cells, read-out: Y2 cAMP EC50

EC50 (Y2 receptor; [1]) [nM]	Molecule	EC50 (Y4 receptor) [nM]	also measured
	CC[C@H](C)[C@H](NC(=O)[C@H](Cc1ccc(O)cc1)NC(=O)[C@H](CCCNC(=N)N)NC(=O)[C@H](CCCNC(=N)N)NC(=O)[C@H](CC(C)C)NC(=O)[C@H](CC(=O)O)NC(=O)[C@H](C)NC(=O)[C@H](C)NC(=O)[C@H](Cc1ccc(O)cc1)NC(=O)[C@H](CCC(N)=O)NC(=O)[C@H](C)NC(=O)[C@H](CC(C)C)NC(=O)[C@H](CCC(N)=O)NC(=O)[C@H](CCC(=O)O)NC(=O)[C@@H]1CCCN1C(=O)[C@H](CCCCNC(=O)COCCOCCNC(=O)COCCOCCNC(=O)CC[C@H](NC(=O)[C@H]1CC[C@H](CNC(=O)CCCCCCCCCCCCCCCCCCC(=O)O)CC1)C(=O)O)NC(=O)[C@H](C)NC(=O)[C@H](CC(N)=O)NC(=O)[C@H](CC(=O)O)NC(=O)CNC(=O)[C@@H]1CCCN1C(=O)[C@H](Cc1ccc(O)cc1)NC(=O)[C@@H](NC(=O)[C@@H]1CCCN1C(=O)[C@H](CCC(=O)O)NC(=O)[C@H](CC(C)C)NC(=O)[C@@H]1CCCN1C(=O)[C@H](C)N)C(C)C)C(=O)N[C@@H](CC(N)=O)C(=O)N[C@@H](CC(C)C)C(=O)N[C@@H](CC(C)C)C(=O)N[C@H](C(=O)N[C@@H](CCCNC(=N)N)C(=O)N[C@@H](CCC(N)=O)C(=O)N[C@@H](CCCNC(=N)N)C(=O)N[C@@H](Cc1ccc(O)cc1)C(N)=O)[C@@H](C)O [SEQ ID NO: 4] (H-APLEPVYPGDNAK([AEEA-AEEA-γGlu-Trx-C20 diacid])PEQLAQYAADLRRYINLLTRQRY-NH2; N-terminus and C-terminus assumed)	18	
	CC[C@H](C)[C@H](NC(=O)[C@H](Cc1ccc(O)cc1)NC(=O)[C@H](CCCNC(=N)N)NC(=O)[C@H](CCCNC(=N)N)NC(=O)[C@H](CC(C)C)NC(=O)[C@H](CC(=O)O)NC(=O)[C@H](C)NC(=O)[C@H](C)NC(=O)[C@H](Cc1ccc(O)cc1)NC(=O)[C@H](CCC(N)=O)NC(=O)[C@H](C)NC(=O)[C@H](CC(C)C)NC(=O)[C@H](CCC(N)=O)NC(=O)[C@H](CCC(=O)O)NC(=O)[C@@H]1CCCN1C(=O)[C@H](CCCCNC(=O)COCCOCCNC(=O)COCCOCCNC(=O)CC[C@H](NC(=O)[C@H]1CC[C@H](CNC(=O)CCCCCCCCCCCCCCCCCCC(=O)O)CC1)C(=O)O)NC(=O)[C@H](C)NC(=O)[C@H](CC(=O)O)NC(=O)[C@H](CC(N)=O)NC(=O)CNC(=O)[C@@H]1CCCN1C(=O)[C@H](Cc1ccc(O)cc1)NC(=O)[C@@H](NC(=O)[C@@H]1CCCN1C(=O)[C@H](CCC(=O)O)NC(=O)[C@H](CC(C)C)NC(=O)[C@@H]1CCCN1C(=O)[C@H](C)N)C(C)C)C(=O)N[C@@H](CC(N)=O)C(=O)N[C@@H](CC(C)C)C(=O)N[C@H](C(=O)N[C@H](C(=O)N[C@@H](CCCNC(=N)N)C(=O)N1CCC[C@H]1C(=O)N[C@@H](CCCNC(=N)N)C(=O)N[C@@H](Cc1ccc(O)cc1)C(N)=O)[C@@H](C)O)C(C)C [SEQ ID NO: 14, N-epsilon13-[2-(2-{2-[2-(2-{2-[(S)-4-Carboxy-4-({trans-4-[(19-carboxynonadecanoylamino)methyl]cyclohexanecarbonyl}amino)butyrylamino]-eth-oxy}ethoxy)acetylamino]ethoxy}ethoxy)acetyl][Asn10,Asp11,Lys13,Leu17,Leu30,Val31]hPP(1-36)] (H-APLEPVYPGNDAK([AEEA-AEEA-γGlu-Trx-C20 diacid])PEQLAQYAADLRRYINLVTRPRY-NH2; N-terminus and C-terminus assumed)	18	
> 1000	CC[C@H](C)[C@H](NC(=O)[C@H](Cc1ccc(O)cc1)NC(=O)[C@H](CCCCNC(=O)COCCOCCNC(=O)COCCOCCNC(=O)CC[C@H](NC(=O)CCCCCCCCCCCCCCCCC(=O)O)C(=O)O)NC(=O)[C@H](CCCNC(=N)N)NC(=O)[C@H](CC(C)C)NC(=O)[C@H](CC(=O)O)NC(=O)[C@H](C)NC(=O)[C@H](C)NC(=O)[C@H](Cc1ccc(O)cc1)NC(=O)[C@H](CCC(N)=O)NC(=O)[C@H](C)NC(=O)[C@H](CC(C)C)NC(=O)[C@H](CCC(N)=O)NC(=O)[C@H](CCC(=O)O)NC(=O)[C@@H]1CCCN1C(=O)[C@@H](NC(=O)[C@H](C)NC(=O)[C@H](CC(N)=O)NC(=O)[C@H](CC(=O)O)NC(=O)CNC(=O)[C@@H]1CCCN1C(=O)[C@H](Cc1ccc(O)cc1)NC(=O)[C@@H](NC(=O)[C@@H]1CCCN1C(=O)[C@H](CCC(=O)O)NC(=O)[C@H](CC(C)C)NC(=O)[C@@H]1CCCN1)C(C)C)[C@@H](C)O)C(=O)N[C@@H](CC(N)=O)C(=O)N[C@@H](CC(C)C)C(=O)N[C@@H](CC(C)C)C(=O)N[C@H](C(=O)N[C@@H](CCCNC(=N)N)C(=O)N1CCC[C@H]1C(=O)N[C@@H](CCCNC(=N)N)C(=O)N[C@@H](Cc1ccc(O)cc1)C(N)=O)[C@@H](C)O [SEQ ID NO: 46, N-epsilon26-[2-(2-{2-[2-(2-{2-[(S)-4-Carboxy-4-(17-carboxyheptadecanoylamino)butyrylamino]ethoxy}ethoxy)acetylamino]-ethoxy}ethoxy)acetyl][Leu17,Lys26,Leu30]hPP2-36] (H-PLEPVYPGDNATPEQLAQYAADLRK([AEEA-AEEA-γGlu-C18 diacid])YINLLTRPRY-NH2; N-terminus and C-terminus assumed)		half-life (in vivo; 4 nmol/kg): 3720 min
	CC[C@H](C)[C@H](NC(=O)[C@H](Cc1ccc(O)cc1)NC(=O)[C@H](CCCNC(=N)N)NC(=O)[C@H](CCCNC(=N)N)NC(=O)[C@H](CC(C)C)NC(=O)[C@H](CC(=O)O)NC(=O)[C@H](C)NC(=O)[C@H](C)NC(=O)[C@H](Cc1ccc(O)cc1)NC(=O)[C@H](CCC(N)=O)NC(=O)[C@H](C)NC(=O)[C@H](CC(C)C)NC(=O)[C@H](CCC(N)=O)NC(=O)[C@H](CCC(=O)O)NC(=O)[C@@H]1CCCN1C(=O)[C@@H](NC(=O)[C@H](C)NC(=O)[C@H](CC(N)=O)NC(=O)[C@H](CC(=O)O)NC(=O)CNC(=O)[C@@H]1CCCN1C(=O)[C@H](Cc1ccc(O)cc1)NC(=O)[C@@H](NC(=O)[C@@H]1CCCN1C(=O)[C@H](CCC(=O)O)NC(=O)[C@H](CC(C)C)NC(=O)[C@@H]1CCCN1C(=O)[C@H](C)NC(=O)COCCOCCNC(=O)COCCOCCNC(=O)CC[C@H](NC(=O)[C@H]1CC[C@H](CNC(=O)CCCCCCCCCCCCCCCCCCC(=O)O)CC1)C(=O)O)C(C)C)[C@@H](C)O)C(=O)N[C@@H](CC(N)=O)C(=O)N[C@@H](CC(C)C)C(=O)N[C@@H](CC(C)C)C(=O)N[C@H](C(=O)N[C@@H](CCCNC(=N)N)C(=O)N1CCC[C@H]1C(=O)N[C@@H](CCCNC(=N)N)C(=O)N[C@@H](Cc1ccc(O)cc1)C(N)=O)[C@@H](C)O [SEQ ID NO: 75, N-alfa-[2-(2-{2-[2-(2-{2-[(S)-4-Carboxy-4-({trans-4-[(19-carboxynonadecanoylamino)methyl]cyclohexanecarbonyl}amino)butyrylamino]-ethoxy}ethoxy)acetylamino]ethoxy}ethoxy)acetyl][Leu17,Leu30]hPP1-36] ({C20 diacid-Trx-γGlu-AEEA-AEEA}-APLEPVYPGDNATPEQLAQYAADLRRYINLLTRPRY-NH2; C-terminus assumed)		EC50 (Y2 receptor): > 1000 nM; half-life (in vivo; in vivo, 10 nmol/kg): 2880 min
> 1000	PLEPVYPGDNATPEQLAQYAADLRRYINLLTRPRY-NH2 (C-terminus assumed) [SEQ ID NO: 73, [Leu17,Leu30]hPP2-36, reference compound]		half-life (in vivo; 50 nmol/kg): 33 min
